Assay results taken from patent US20060035869A1, “Inhibitors of epoxide hydrolases for the treatment of hypertension” (THE REGENTS OF THE UNIVERSITY OF CALIFORNIA OFFICE OF …, priority 1999, published 2006).
Where two headings read alike, the source gives them in different places. One block for each molecule: values may come before it.

How the values were obtained:
[1] = molecular target: T1, Rat mEH (Rattus norvegicus, UniProt P07687); experiment: Inhibition of mammalian microsomal EH, 3H-cis-stilbene oxide assay; format: biochemical
T1 sequence (P07687 1-455): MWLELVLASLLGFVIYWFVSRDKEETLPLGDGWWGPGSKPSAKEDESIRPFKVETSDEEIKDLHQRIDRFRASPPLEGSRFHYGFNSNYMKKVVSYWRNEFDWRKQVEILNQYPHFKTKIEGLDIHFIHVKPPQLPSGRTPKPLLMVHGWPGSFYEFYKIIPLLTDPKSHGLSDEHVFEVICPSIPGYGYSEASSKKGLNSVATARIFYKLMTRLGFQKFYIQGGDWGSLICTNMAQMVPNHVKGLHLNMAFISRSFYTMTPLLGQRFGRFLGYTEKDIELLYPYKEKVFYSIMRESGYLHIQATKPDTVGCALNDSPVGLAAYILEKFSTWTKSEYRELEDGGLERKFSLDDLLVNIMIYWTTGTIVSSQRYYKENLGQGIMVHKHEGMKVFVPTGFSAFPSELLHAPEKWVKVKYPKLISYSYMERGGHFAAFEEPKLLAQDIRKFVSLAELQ
Experimental: (§1) The mixture was incubated at 30° C. for 5 minutes. […] Assays were performed in quadruplicate.

[2] = molecular target: T2, human sEH (Homo sapiens, UniProt P34913); experiment: Inhibition of recombinant human soluble EH, spectrophotometric NEP2C assay; format: biochemical; settings: recombinant enzyme, NEP2C 40 μM, 30° C., pH 7.4
T2 construct: made in house; host or cells: baculovirus expression system (insect cells)
T2 sequence (P34913 1-555): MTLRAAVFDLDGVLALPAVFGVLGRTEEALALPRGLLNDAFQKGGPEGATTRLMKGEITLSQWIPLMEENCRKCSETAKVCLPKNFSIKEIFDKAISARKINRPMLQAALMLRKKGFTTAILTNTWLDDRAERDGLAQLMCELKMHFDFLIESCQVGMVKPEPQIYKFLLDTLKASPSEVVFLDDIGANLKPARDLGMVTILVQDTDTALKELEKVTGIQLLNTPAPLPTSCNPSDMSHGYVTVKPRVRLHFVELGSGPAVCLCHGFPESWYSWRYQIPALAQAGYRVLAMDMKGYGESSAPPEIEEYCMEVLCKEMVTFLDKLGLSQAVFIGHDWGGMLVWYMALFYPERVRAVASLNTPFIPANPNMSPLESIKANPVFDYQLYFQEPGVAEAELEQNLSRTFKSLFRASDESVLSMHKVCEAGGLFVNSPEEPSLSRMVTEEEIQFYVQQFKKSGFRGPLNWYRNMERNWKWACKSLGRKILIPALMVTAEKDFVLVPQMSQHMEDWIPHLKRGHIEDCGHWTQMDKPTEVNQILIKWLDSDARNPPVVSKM
Experimental: (§2) Recombinant mouse sEH (MsEH) and human sEH (HsEH) were produced in a baculovirus expression system as previously reported. […] The expressed proteins were purified from cell lysate by affinity chromatography. […] Protein concentration was quantified using the Pierce BCA assay using bovine serum albumin as the calibrating standard.
as §1

[3] = molecular target: T3, mouse sEH (Mus musculus, UniProt P34914); experiment: Inhibition of recombinant mouse soluble EH, spectrophotometric NEP2C assay; format: biochemical
T3 construct: made in house; host or cells: baculovirus expression system (insect cells)
T3 sequence (P34914 1-554): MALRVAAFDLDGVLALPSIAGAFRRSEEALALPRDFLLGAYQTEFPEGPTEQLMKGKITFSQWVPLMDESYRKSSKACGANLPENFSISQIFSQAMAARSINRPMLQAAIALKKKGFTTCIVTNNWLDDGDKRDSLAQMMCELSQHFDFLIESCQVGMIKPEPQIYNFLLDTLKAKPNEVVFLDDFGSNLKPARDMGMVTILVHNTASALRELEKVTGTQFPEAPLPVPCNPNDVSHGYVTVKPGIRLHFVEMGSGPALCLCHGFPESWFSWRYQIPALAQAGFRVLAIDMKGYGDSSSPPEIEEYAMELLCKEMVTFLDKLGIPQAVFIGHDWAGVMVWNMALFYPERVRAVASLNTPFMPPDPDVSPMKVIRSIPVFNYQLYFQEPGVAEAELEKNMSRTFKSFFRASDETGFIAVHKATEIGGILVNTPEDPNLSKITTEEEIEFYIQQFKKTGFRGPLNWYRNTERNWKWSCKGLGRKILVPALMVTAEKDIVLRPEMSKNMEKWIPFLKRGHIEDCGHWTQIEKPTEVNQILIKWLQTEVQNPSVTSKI
Experimental: as §2, §1

[4] = molecular target: T4, M secta mEH (Manduca sexta, UniProt Q25489); experiment: Inhibition of recombinant insect microsomal EH; format: biochemical
T4 sequence (Q25489 1-462): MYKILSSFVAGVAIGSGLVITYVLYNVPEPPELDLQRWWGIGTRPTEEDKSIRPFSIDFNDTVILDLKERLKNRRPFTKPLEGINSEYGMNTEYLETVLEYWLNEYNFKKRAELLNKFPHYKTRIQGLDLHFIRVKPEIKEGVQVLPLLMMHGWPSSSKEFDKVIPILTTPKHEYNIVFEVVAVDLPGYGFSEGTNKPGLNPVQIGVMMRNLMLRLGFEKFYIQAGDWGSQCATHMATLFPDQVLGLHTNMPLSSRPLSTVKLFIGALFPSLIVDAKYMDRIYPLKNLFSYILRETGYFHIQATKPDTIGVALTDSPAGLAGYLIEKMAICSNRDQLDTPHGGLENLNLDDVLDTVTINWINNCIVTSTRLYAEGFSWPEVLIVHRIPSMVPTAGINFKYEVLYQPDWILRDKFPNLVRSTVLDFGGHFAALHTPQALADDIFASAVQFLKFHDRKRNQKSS

[5] = test system: leukotoxin/isoleukotoxin induced death; experiment: Protection of mice against leukotoxin/isoleukotoxin induced death; format: in vivo, mouse; settings: Swiss Webster mice, 400 mg/kg i.p. in corn oil 30 minutes before leukotoxin/isoleukotoxin methyl esters 700 mg/kg i.v.
Experimental: Male Swiss Webster mice (25-28 g) were purchased from Simonsen, Gilroy, Calif. The animals had free access to water and food. […] After 30 minutes of the pretreatment, the mice were treated intravenously through the tail vein with a 1:1 mixture of leukotoxin/isoleukotoxin methyl esters in ethanol (700 mg/kg, 1.0 ml/kg).
The mice died of respiratory distress after exposure to leukotoxin/isoleukotoxin. The lethal reactions took place sequentially with accelerated breathing, opening of the mouth to assist breathing, and bloody fluid running from the nose.

[6] = recombinant enzyme, NEP2C 40 μM, 30° C., pH 7.4, read-out: Mouse sEH IC50

SMILES: O=C(NCC1CCCCC1)NC1CCCCC1 [Compound 57]
IC50 [1]: > 500 µM

SMILES: O=C(NC1CCCCC1)SC1CCCCC1 [Compound 11]
IC50 [3]: 3.8 ± 0.01 µM | IC50 [2]: 7.5 ± 0.4 µM

SMILES: C(=NC1CCCCC1)=NC1CCCCC1 [Compound 1, dicyclohexylcarbodiimide]
effect of time on the inhibition of mouse sEH ([3]; FIG. 1): increased with the time

SMILES: CCCCCCCCCCNC(=O)NC [Compound 17]
IC50 [4]: 28 ± 2 µM

SMILES: CCCCCCCCCCNC(=O)NCC [Compound 19]
IC50 [4]: 4.8 ± 0.4 µM

SMILES: S=C(NC1CCCCC1)NC1CCCCC1 [Compound 12]
IC50 [3, 6]: 99 ± 5 µM | IC50 [2]: 20 ± 1 µM

SMILES: O=C(NC1CCCCCCC1)NC1CCCCC1 [Compound 58]
IC50 [1]: > 500 µM | IC50 [4]: 3.9 ± 0.4 µM

SMILES: O=C(NC1CCCCC1)NC1CCCCC1 [Compound 2, N,N′-dicyclohexylurea]
IC50 [1]: > 500 µM | animal death induced by leukotoxin/isoleukotoxin [5]: either blocked the animal death induced by leukotoxin/isoleukotoxin or lengthened the lives of the mice

SMILES: CCCCCCCCCCNC(=O)NCC [Compound 28]
IC50 [3, 6]: 5.8 ± 0.4 µM | IC50 [2]: 48 ± 3 µM | IC50 [1]: 8.3 ± 0.4 µM

SMILES: CCCCCCCCNC(N)=O [Compound 101]
IC50 [3, 6]: 1.04 ± 0.02 µM | IC50 [2]: 5.5 ± 0.1 µM | IC50 [1]: 73 ± 1 µM

SMILES: [O-][S+](Cc1ccccc1)Cc1ccccc1 [Compound 161]
IC50 [3]: 156 ± 3 µM | IC50 [2]: 289 ± 7 µM | IC50 [1]: > 500 µM

SMILES: CNC(=O)Nc1ccc(Cl)c(Cl)c1 [Compound 32]
IC50 [3, 6]: 108 ± 4 µM | IC50 [2]: 47 ± 2 µM | IC50 [1]: > 500 µM

SMILES: CCCCCCCCCCCCNC(=O)NCCF [Compound 238]
IC50 [3, 6]: 50 ± 5 µM | IC50 [2]: 57 ± 1 µM | IC50 [1]: 9.9 ± 0.2 µM

The remaining lines, values ahead:

IC50 [1]: > 500 µM
SMILES: CCOC(CCCNC(=O)Nc1cccc(Cl)c1)OCC [Compound 167]

IC50 [2]: 1.05 ± 0.03 µM | IC50 [1]: > 500 µM
SMILES: CC1CCC(C(C)C)C(OC(=O)NC2CCCCC2)C1 (stereo not shown) [Compound 225]

IC50 [1]: > 500 µM
SMILES: O=C(Nc1ccc(Oc2ccccc2)cc1)NC1CCCCC1 [Compound 140]

IC50 [1]: > 500 µM
SMILES: CCCCCCCCNC(=O)NC1CCCCC1 [Compound 168]

IC50 [3, 6]: > 250 µM | IC50 [2]: 49 ± 7 µM
SMILES: [H]/N=C(\N/C(=N/[H])NCCCCCCNC(=N)NC(=N)Nc1ccc(Cl)cc1)Nc1ccc(Cl)cc1 [Compound 204]

IC50 [1]: > 500 µM
SMILES: O=C(NCC1CCCCC1)Nc1ccc2ccccc2c1 [Compound 169]

IC50 [1]: > 500 µM
SMILES: O=C(NCCCc1ccccc1)NC1CCCCC1 [Compound 104]

IC50 [1]: > 500 µM
SMILES: O=C(NCc1ccc(Cl)cc1)NC1CCCCC1 [Compound 193]

IC50 [1]: > 500 µM
SMILES: O=C(NCC1CCCCC1)Nc1cccc(Cl)c1 [Compound 179]

IC50 [1]: > 500 µM
SMILES: CCCCCCCCCCNC(=O)Nc1cccc(Cl)c1 [Compound 172]

IC50 [3, 6]: > 500 µM | IC50 [2]: > 500 µM | IC50 [1]: 2.67 ± 0.07 µM
SMILES: CCCCCCCCCCN [Compound 303]

IC50 [1]: > 500 µM
SMILES: CC(C)c1ccc(NC(=O)NCC2CCCCC2)cc1 [Compound 180]
